Measured values as given in US9681664B2, “Macrocyclic picolinamides as fungicides” (Dow Agrosciences LLC, priority 2012, dated 2017).
Like-named read-outs stand apart in the source and are kept apart here.

Legend:
[1] = test system: Mycosphaerella graminicola; Anamorph: Septoria tritici; test: Leaf blotch of wheat (SEPTTR) disease control on wheat seedlings; assay type: in vivo; details: for pest or weed control at 100 ppm / pest or weed control at 121.5 g/ha: Zymoseptoria tritici; for pest or weed control at 121.5 g/ha: low volume application, 121.5 g/H
Description: Technical grades of materials were dissolved in acetone, which were then mixed with nine volumes of water containing 110 ppm Triton X-100. The fungicide solutions were applied onto wheat seedlings using an automated booth sprayer to run-off. All sprayed plants were allowed to air dry prior to further handling. All fungicides were evaluated using the aforementioned method for their activity vs. all target diseases. Wheat leaf blotch and brown rust activity were also evaluated using track spray applications, in which case the fungicides were formulated as EC formulations, containing 0.1% Trycol 5941 in the spray solutions. Wheat plants (variety Yuma) were grown from seed in a greenhouse in 50% mineral soil/50% soil-less Metro mix until the first leaf was fully emerged, with 7-10 seedlings per pot. These plants were inoculated with an aqueous spore suspension of Septoria tritici either prior to or after fungicide treatments. After inoculation the plants were kept in 100% relative humidity (one day in a dark dew chamber followed by two to three days in a lighted dew chamber at 20° C.) to permit spores to germinate and infect the leaf. The plants were then transferred to a greenhouse set at 20° C. for disease to develop. When disease symptoms were fully expressed on the 1st leaves of untreated plants, infection levels were assessed on a scale of 0 to 100 percent disease severity. Percent disease control was calculated using the ratio of disease severity on treated plants relative to untreated plants.

[2] = test system: Puccinia triticina; Synonym: Puccinia recondite f. sp. tritici; test: Wheat brown rust (PUCCRT) disease control on wheat seedlings; assay type: in vivo; details: for pest or weed control at 100 ppm / pest or weed control at 121.5 g/ha: Puccinia triticina; for pest or weed control at 121.5 g/ha: low volume application, 121.5 g/H
Description: Technical grades of materials were dissolved in acetone, which were then mixed with nine volumes of water containing 110 ppm Triton X-100. The fungicide solutions were applied onto wheat seedlings using an automated booth sprayer to run-off. All sprayed plants were allowed to air dry prior to further handling. All fungicides were evaluated using the aforementioned method for their activity vs. all target diseases. Wheat leaf blotch and brown rust activity were also evaluated using track spray applications, in which case the fungicides were formulated as EC formulations, containing 0.1% Trycol 5941 in the spray solutions. Wheat plants (variety Yuma) were grown from seed in a greenhouse in 50% mineral soil/50% soil-less Metro mix until the first leaf was fully emerged, with 7-10 seedlings per pot. These plants were inoculated with an aqueous spore suspension of Puccinia triticina either prior to or after fungicide treatments. After inoculation the plants were kept in a dark dew room at 22° C. with 100% relative humidity overnight to permit spores to germinate and infect the leaf. The plants were then transferred to a greenhouse set at 24° C. for disease to develop. Fungicide formulation, application and disease assessment followed the procedures as described in the Example A.

[3] = 24 h, High volume application, 100 ppm, 1 Day Protectant, read-out: SEPTTR 1DP disease control
[4] = 72 h, High volume application, 100 ppm, 3 Day Curative, read-out: SEPTTR 3DC disease control
[5] = 24 h, High volume application, 100 ppm, 1 Day Protectant, read-out: PUCCRT 1DP disease control
[6] = 72 h, High volume application, 100 ppm, 3 Day Curative, read-out: PUCCRT 3DC disease control
[7] = 24 h, Wheat Leaf Blotch, 1 Day Protectant, high volume application, 100 ppm, read-out: Disease Control SEPTTR 1 DP 100 ppm
[8] = 24 h, Wheat Leaf Blotch, 1 Day Protectant, read-out: Disease Control SEPTTR 1 DP 121.5 g/H
[9] = 72 h, Wheat Leaf Blotch, 3 Day Curative, high volume application, 100 ppm, read-out: Disease Control SEPTTR 3 DC 100 ppm
[10] = 72 h, Wheat Leaf Blotch, 3 Day Curative, read-out: Disease Control SEPTTR 3 DC 121.5 g/H
[11] = 24 h, Wheat Brown Rust, 1 Day Protectant, high volume application, 100 ppm, read-out: Disease Control PUCCRT 1 DP 100 ppm
[12] = 24 h, Wheat Brown Rust, 1 Day Protectant, read-out: Disease Control PUCCRT 1 DP 121.5 g/H
[13] = 72 h, Wheat Brown Rust, 3 Day Curative, high volume application, 100 ppm, read-out: Disease Control PUCCRT 3 DC 100 ppm
[14] = 72 h, Wheat Brown Rust, 3 Day Curative, read-out: Disease Control PUCCRT 3 DC 121.5 g/H
[15] = High volume application, 100 ppm, 1 Day Protectant
[16] = High volume application, 100 ppm, 3 Day Curative

Row | Compound | pest or weed control at 100 ppm [1, 3] | pest or weed control at 100 ppm [1, 4] | pest or weed control at 100 ppm [2, 5] | pest or weed control at 100 ppm [2, 6] | also measured
1 | COc1ccnc(C(=O)N[C@H]2CCC[C@H](OCCCC(F)(F)F)[C@@H](Oc3ccccc3)[C@H](C)OC2=O)c1OCOC(C)=O [F135] | 80 to 100% | 80 to 100% | 80 to 100% | 80 to 100% | –
2 | COc1ccnc(C(=O)N[C@H]2CCC[C@H](Oc3ccccc3)[C@@H](OC(=O)C3CC3)[C@H](C)OC2=O)c1OCOC(C)=O [F240] | – | – | – | – | pest or weed control at 100 ppm [1, 7]: 80 to 100%; pest or weed control at 121.5 g/ha [1, 8]: 80 to 100%; pest or weed control at 100 ppm [1, 9]: 80 to 100%; pest or weed control at 121.5 g/ha [1, 10]: 80 to 100%; pest or weed control at 100 ppm [2, 11]: 80 to 100%; pest or weed control at 121.5 g/ha [2, 12]: 80 to 100%; pest or weed control at 100 ppm [2, 13]: 80 to 100%; pest or weed control at 121.5 g/ha [2, 14]: 80 to 100%
3 | COc1ccnc(C(=O)N[C@H]2CCC[C@H](Oc3ccccc3)[C@@H](OCCCc3ccccc3)[C@H](C)OC2=O)c1OC(C)=O [F131] | 80 to 100% | 80 to 100% | 80 to 100% | 80 to 100% | –
4 | CCCO[C@H]1CCC[C@H](NC(=O)c2nccc(OC)c2OCOC(C)=O)C(=O)O[C@@H](C)[C@@H]1Oc1ccc(F)cc1 [F265] | – | – | – | – | pest or weed control at 100 ppm [1, 7]: 80 to 100%; pest or weed control at 121.5 g/ha [1, 8]: 80 to 100%; pest or weed control at 100 ppm [1, 9]: 80 to 100%; pest or weed control at 100 ppm [2, 11]: 80 to 100%; pest or weed control at 121.5 g/ha [2, 12]: 80 to 100%; pest or weed control at 100 ppm [2, 13]: 80 to 100%; pest or weed control at 121.5 g/ha [2, 14]: 0 to 80%
5 | COc1ccnc(C(=O)N[C@H]2CCC[C@H](OC(=O)C3CCCC3)[C@@H](OCC(C)C)[C@H](C)OC2=O)c1OCOC(C)=O [F223] | 80 to 100% | 80 to 100% | 80 to 100% | 80 to 100% | –
6 | COCCC(=O)Oc1c(OC)ccnc1C(=O)N[C@H]1CCC[C@H](OCC(C)C)[C@@H](OC(=O)C2CCCC2)[C@H](C)OC1=O [F152] | 80 to 100% | 80 to 100% | 80 to 100% | 80 to 100% | –
7 | COc1ccnc(C(=O)N[C@H]2CCC[C@H](OCCCC(F)(F)F)[C@@H](OCCCC(F)(F)F)[C@H](C)OC2=O)c1OC(C)=O [F90] | 80 to 100% | 80 to 100% | 80 to 100% | 80 to 100% | –
8 | COc1ccnc(C(=O)N[C@H]2CCC[C@H](Oc3ccccc3)[C@@H](OC(=O)C3CC3)[C@H](C)OC2=O)c1O [F239] | – | – | – | – | pest or weed control at 100 ppm [1, 7]: < 0%; pest or weed control at 100 ppm [1, 9]: 0 to 80%; pest or weed control at 100 ppm [2, 11]: 0 to 80%; pest or weed control at 100 ppm [2, 13]: < 0%
9 | CCCO[C@H]1[C@H](C)OC(=O)[C@@H](NC(=O)c2nccc(OC)c2OCOC(C)=O)CCC[C@@H]1OCCC [F116] | 80 to 100% | 80 to 100% | 80 to 100% | 80 to 100% | –
10 | [4-methoxy-2-[[(3S,7S,8S,9S)-9-methyl-7,8-bis(2-methylallyloxy)-2-oxo-oxonan-3-yl]carbamoyl]-3-pyridyl]oxymethyl-2-methylpropanoate [F17] | – | – | – | – | SEPTTR 1DP disease control [1, 15]: A (80-100); SEPTTR 3DC disease control [1, 16]: A (80-100); PUCCRT 1DP disease control [2, 15]: A (80-100); PUCCRT 3DC disease control [2, 16]: A (80-100)
11 | COc1ccnc(C(=O)N[C@H]2CCC[C@H](OC3CCCC3)[C@@H](OC(=O)C3CC3)[C@H](C)OC2=O)c1O [F142] | 0 to 80% | 80 to 100% | 80 to 100% | 80 to 100% | –
12 | COc1ccnc(C(=O)N[C@H]2CCC[C@H](OC3CCCC3)[C@@H](OC(=O)C3CCCC3)[C@H](C)OC2=O)c1O [F143] | 80 to 100% | 0 to 80% | 80 to 100% | 80 to 100% | –
13 | COc1ccnc(C(=O)N[C@H]2CCC[C@H](Oc3ccccc3)[C@@H](OC3CCCC3)[C@H](C)OC2=O)c1O [F75] | 80 to 100% | 80 to 100% | 80 to 100% | 80 to 100% | –
14 | COc1ccnc(C(=O)N[C@H]2CCC[C@H](OC3CCCC3)[C@@H](OC(=O)C3CC3)[C@H](C)OC2=O)c1OCOC(=O)C(C)C [F145] | 80 to 100% | 80 to 100% | 80 to 100% | 80 to 100% | –
15 | COc1ccnc(C(=O)N[C@H]2CCC[C@H](OCCCc3ccccc3)[C@@H](OCC(C)C)[C@H](C)OC2=O)c1OCOC(C)=O [F222] | 80 to 100% | 80 to 100% | 80 to 100% | 80 to 100% | –
16 | CCCO[C@H]1CCC[C@H](NC(=O)c2nccc(OC)c2O)C(=O)O[C@@H](C)[C@@H]1Oc1ccc(Br)cc1 [F273] | – | – | – | – | pest or weed control at 100 ppm [1, 7]: 80 to 100%; pest or weed control at 100 ppm [1, 9]: 0 to 80%; pest or weed control at 100 ppm [2, 11]: 80 to 100%; pest or weed control at 100 ppm [2, 13]: 80 to 100%
17 | CCCO[C@H]1[C@H](C)OC(=O)[C@@H](NC(=O)c2nccc(OC)c2OCOC(=O)C(C)C)CCC[C@@H]1OC1CCCC1 [F123] | 80 to 100% | 80 to 100% | 80 to 100% | 80 to 100% | –
18 | COc1ccnc(C(=O)N[C@H]2CCC[C@H](OCCCc3ccccc3)[C@@H](OC3CCCC3)[C@H](C)OC2=O)c1OCOC(C)=O [F225] | 80 to 100% | 80 to 100% | 80 to 100% | 80 to 100% | –
19 | COc1ccnc(C(=O)N[C@H]2CCC[C@H](OCC3CC3)[C@@H](OCC3CC3)[C@H](C)OC2=O)c1O [F117] | < 0% | 80 to 100% | 80 to 100% | 80 to 100% | –
20 | COc1ccnc(C(=O)N[C@H]2CCC[C@H](Oc3ccccc3)[C@@H](OC(=O)C3CCCC3)[C@H](C)OC2=O)c1OC(=O)C1CC1 [F236] | – | – | – | – | pest or weed control at 100 ppm [1, 7]: 0 to 80%; pest or weed control at 121.5 g/ha [1, 8]: 80 to 100%; pest or weed control at 100 ppm [1, 9]: 0 to 80%; pest or weed control at 121.5 g/ha [1, 10]: 0 to 80%; pest or weed control at 100 ppm [2, 11]: 80 to 100%; pest or weed control at 121.5 g/ha [2, 12]: 0 to 80%; pest or weed control at 100 ppm [2, 13]: 0 to 80%; pest or weed control at 121.5 g/ha [2, 14]: < 0%
21 | CCCO[C@H]1CCC[C@H](NC(=O)c2nccc(OC)c2OC(C)=O)C(=O)O[C@@H](C)[C@@H]1Oc1cccc(F)c1 [F275] | – | – | – | – | pest or weed control at 100 ppm [1, 7]: 80 to 100%; pest or weed control at 121.5 g/ha [1, 8]: 80 to 100%; pest or weed control at 100 ppm [1, 9]: 80 to 100%; pest or weed control at 121.5 g/ha [1, 10]: 80 to 100%; pest or weed control at 100 ppm [2, 11]: 80 to 100%; pest or weed control at 121.5 g/ha [2, 12]: 80 to 100%; pest or weed control at 100 ppm [2, 13]: 80 to 100%; pest or weed control at 121.5 g/ha [2, 14]: 80 to 100%
22 | COc1ccnc(C(=O)N[C@H]2CCC[C@H](OCc3ccccc3)[C@@H](OCc3ccccc3)[C@H](C)OC2=O)c1O [F22] | 80 to 100% | 80 to 100% | 80 to 100% | 80 to 100% | –
23 | COc1ccnc(C(=O)N[C@H]2CCC[C@H](OCC(C)C)[C@@H](OCCCC(F)(F)F)[C@H](C)OC2=O)c1OCOC(=O)C(C)C [F51] | 80 to 100% | 80 to 100% | 80 to 100% | 80 to 100% | –
24 | CCCOC(=O)O[C@H]1CCC[C@H](NC(=O)c2nccc(OC)c2O)C(=O)O[C@@H](C)[C@@H]1Oc1cc(C)cc(C)c1 [F290] | – | – | – | – | pest or weed control at 100 ppm [1, 7]: 0 to 80%; pest or weed control at 100 ppm [1, 9]: 0 to 80%; pest or weed control at 100 ppm [2, 11]: 80 to 100%; pest or weed control at 100 ppm [2, 13]: 80 to 100%
